Laboratory results taken from article PMC7756392, “Syntheses of Thailandepsin B Pseudo‐Natural Products: Access to New Highly Potent HDAC Inhibitors via Late‐Stage Modification” (Chemistry (Weinheim an Der Bergstrasse, Germany), 2020).

Key:
hHDAC8 = molecular target: T1, hHDAC8 (Homo sapiens, UniProt Q9BY41); assay: ZMTFAL trypsin assay, HDAC8; format: biochemical
T1 sequence (Q9BY41 1-377): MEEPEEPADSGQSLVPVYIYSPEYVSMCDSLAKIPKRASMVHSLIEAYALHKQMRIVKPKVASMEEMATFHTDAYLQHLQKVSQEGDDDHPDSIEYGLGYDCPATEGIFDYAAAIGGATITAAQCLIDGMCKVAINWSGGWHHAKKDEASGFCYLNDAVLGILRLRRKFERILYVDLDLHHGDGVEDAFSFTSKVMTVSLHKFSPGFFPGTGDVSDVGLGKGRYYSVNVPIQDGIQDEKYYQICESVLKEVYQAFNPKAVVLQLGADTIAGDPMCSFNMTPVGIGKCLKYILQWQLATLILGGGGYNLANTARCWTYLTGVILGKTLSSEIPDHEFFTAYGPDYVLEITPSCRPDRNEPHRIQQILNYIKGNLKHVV
Procedure: [28] Assays for HDAC1/6 were prepared according to: B. Heltweg , J. Trapp , M. Jung , Methods 2005, 36, 332–337; assays for HDAC8 were prepared according to: J. Senger , J. Melesina , M. Marek , C. Romier , I. Oehme , O. Witt , W. Sippl , M. Jung , J. Med. Chem. 2016, 59, 1545–1555. […]
After […]
incubation (30 min at 37 °C) fluorescence signal (λex = 390 nm, λem = 460 nm) was measured on a BMG LABTECH POLARstar OPTIMA plate reader (BMG Labtechnologies, Germany).10 hHDAC8: Enzyme was obtained from cooperation partners (Romier).11 Assay was performed as described before. 22.5 µL of enzyme solution in assay buffer (15 mM Tris, pH 7.5, 50 mM KH2PO4, 10 mM KCl, 3 mM MgSO4·7H2O and 0.2 mM TCEP), increasing inhibitor concentrations in DMSO (2.5 μL) and 5 µL of ZMTFAL substrate solution ([…]) were incubated for 90 min at 37 °C in ½ AreaPlate-96 F microplates (PerkinElmer). 30 µL of stop solution (see HDAC1/6) were added. After incubation (30 min at 37 °C) fluorescence signal was […]

HeLa cells = assay: MTS cell viability assay, HeLa; format: cell-based; conditions: for GI50 (in words): MTS assay, 72 h
Procedure: hHDAC1/6: Activity assays were performed in OptiPlateTM-96 F black microplates (PerkinElmer). Commercial available enzymes (human recombinant HDAC1; BPS Bioscience, catalog no. 50051 and human recombinant HDAC6; BPS Bioscience, catalog no. 50006) were used. Total assay volume of 60 µL contains 42 µl of assay buffer (50 mM Tris -HCl, pH 8.0, 137 mM NaCl, 2.7 mM KCl, 1 mM MgCl2, 0.2 mM TCEP and 1 mg/mL bovine serum albumin), 10 µL of enzyme solution in assay buffer, 3 µL of increasing concentrations of inhibitors in DMSO and 5 μL of the fluorogenic substrate ZMAL (Z -(Ac)Lys-AMC) (126 μM). After incubation (90 min, 37 °C) 60 µL of stop solution, containing 5 μL Trichostatin A (TSA) (33 μM) and 10 μL trypsin (6 mg/mL) in trypsin buffer (Tris-HCl 50 mM, pH 8.0, NaCl 100 mM), were added. After incubation (30 min at 37 °C) fluorescence signal (λex = 390 nm, λem = 460 nm) was measured on a BMG LABTECH POLARstar OPTIMA plate reader (BMG Labtechnologies, Germany).10 hHDAC8: Enzyme was obtained from cooperation partners (Romier).11 Assay was performed as described before. […] After incubation (30 min at 37 °C) fluorescence signal was determined as mentioned for HDAC1/6.12 […]
Cell proliferation was determined by using the Celltiter 96 AQueous nonradioactive Proliferation Assay (Promega). After 72h of incubation time with inhibitor or DMSO, 20 µL of a mixture (20:1) consisting of MTS (3-(4,5-dimethylthiazol-2-yl)-5-(3-carboxymethoxyphenyl)-2-(4-sulfophenyl-2H-tetrazolium) and PMS (phenazine methosulfate) were added to each well. Absorption was measured after another 2-4 h with a BMG LABTECH POLARstar OPTIMA plate reader (BMG Labtechnologies, Germany).
Experiments were performed in triplicates and GI50 values were calculated using the software Origin 2019. […]
CO2. […] After another 20 min of incubation, the fluorescence signal (λex = 390 nm, λem = 460 nm) was measured on a BMG LABTECH POLARstar OPTIMA plate reader (BMG Labtechnologies, Germany). […]

## CCCC[C@H]1NC(=O)C[C@@H](/C=C/CCC(=O)NO)OC(=O)C[C@H](O)[C@@H]([C@@H](C)CC)NC(=O)[C@@H](C)NC1=O [compound 8]
hHDAC8
  inhibition at 10 µM: 21%
HeLa cells; Homo sapiens, 5 μM, read-out: inhibition of cell growth at 5 μM
  inhibition at 5 µM: 30%

## CCCC[C@H]1NC(=O)C[C@@H](/C=C/CCSC(C)=O)OC(=O)C[C@H](O[Si](C)(C)C(C)(C)C)[C@@H]([C@@H](C)CC)NC(=O)[C@@H](C)NC1=O [compound 32]
hHDAC8
  inhibition at 10 µM: 30%
HeLa cells
  GI50 (in words): micromolar

## CCCC[C@H]1NC(=O)C[C@@H](/C=C/CCSC(C)=O)OC(=O)C[C@H](O)[C@@H]([C@@H](C)CC)NC(=O)[C@@H](C)NC1=O [compound 33]
hHDAC8
  inhibition at 10 µM: 22%
HeLa cells
  GI50 (in words): nanomolar
